Measurements as given in patent publication US20240101599A1, “PEPTIDE, CELL GROWTH PROMOTER, PROTEIN PRODUCTION PROMOTER, CULTURE MEDIUM, CELL GROWTH METHOD USING PEPTIDE, AND PROTEIN PRODUCTION METHOD USING PEPTIDE” (Maruhachi Muramatsu, Inc., priority 2020, published 2024).

Tests used:
[1] = system: CHO-K1; test: Relationship between concentration of each peptide solution and viable cell count (absorbance); format: cell-based; settings: for Absorbance (450 nm): 5 days, MEMα without FBS, n = 3 average, 0 mM = 0.0000; for cell growth promotion, order of the peptides: in words, promoted in the order GEK, DGP, AGK, GPP, GGP, AEK, AGG, ASN, EGK (strongest first)
Experimental: Peptides having the sequences of Gly-Glu-Lys (GEK), Asp-Gly-Pro (DGP), Ala-Gly-Lys (AGK), Gly-Pro-Pro (GPP), Gly-Gly-Pro (GGP), Ala-Glu-Lys (AEK), Ala-Gly-Gly (AGG), Ala-Ser-Asn (ASN), and Glu-Gly-Lys (EGK), and Gly-Gly-Gly (GGG) are synthesized to prepare each of peptide solutions at 10-fold concentrations shown in Tables 1 to 10.
A cell suspension prepared such that CHO-K1 (RI KEN BioResource Research Center, cell number: RCB2330) was at 3×10^4 cells/mL was seeded in a 96-well plate at 100 μL/well and cultured in an incubator at 37° C. and 5% CO2 for 24 hours. As a culture medium, an MEMα culture medium (Gibco) containing 10% FBS was used.
After removing the culture medium from each well and washing with the MEMα culture medium (100 μL), 90 μL of a new MEMa culture medium was dispensed into each well, and each peptide solution (10 μL) was added (total 100 μL/well) such that final concentrations were within a range of 0 mM to 5 mM as shown in Tables 1 to 10 to perform culture for 5 days. A similar culture test was performed using a system containing neither peptide nor FBS as a comparative sample. After culturing for 5 days, 10 μL/well of a viable cell count measurement reagent SF (Nacalai Tesque Inc.) was added, and a color reaction was carried out in an incubator at 37° C. and 5% CO2 for 2 hours to measure an absorbance at 450 nm with a plate reader. A reference wavelength was 630 nm. It was confirmed that the absorbance at 450 nm correlated with the cell number.
The above preparation, culture, and measurement were performed with n=3, and Tables 1 to 10 and FIGS. 1 to 10 show the absorbance at the concentration of each peptide solution.

[2] = system: CHO-K1; test: Cell growth test of each peptide on coating agent for 5 days; format: cell-based; parameters: Viability, 1 / Viability, 2 / Viability, 3 / Viability, Mean: unit not given here; settings: 2.0 mM Ala-Gly-Lys, 2.1 mM Gly-Glu-Lys, 2.5 mM Gly-Gly-Gly, poly-L-lysine coating
Experimental: Peptides having the sequences of Asp-Gly-Pro (DGP), Ala-Gly-Lys (AGK), Gly-Glu-Lys (GEK), and Gly-Gly-Gly (GGG) were synthesized to prepare each peptide solution such that the concentration was a concentration at which the cell number increased the most within a range of 0 mM to 5 mM. In other words, Asp-Gly-Pro (DGP) was adjusted to 22 mM, Ala-Gly-Lys (AGK) was adjusted to 20 mM, Gly-Glu-Lys (GEK) was adjusted to 21 mM, and Gly-Gly-Gly (GGG) was adjusted to 25 mM, and an amount of 1/10 of the total culture medium volume was added to each well immediately before the cell culture test such that final concentrations were 2.2 mM, 2.0 mM, 2.1 mM, and 2.5 mM, respectively. Poly-L-lysine (Peptide Institute, Inc., Poly-L-Lysine Hydrochloride, code: 3075) was prepared to 0.1 mg/mL, and 200 μL was dispensed into each well of a 24-well plate, which was left to stand in an incubator at 37° C. for 2 hours. After removing the residual liquid with an aspirator, rinsing was performed with distilled water, irradiation was performed with a UV lamp in a clean bench without a lid, and drying was performed overnight to sterilize. A cell suspension prepared such that CHO-K1 (RIKEN BioResource Research Center, cell number: RCB2330) was at 4×10^4 cells/mL was seeded in each well of a 24-well plate at 500 μL/well and cultured in an incubator at 37° C. and 5% CO2 for 24 hours. As a culture medium, an MEMα culture medium (Gibco) containing 10% FBS was used.
After removing the culture medium from each well and washing with the MEMα culture medium (500 μL), 450 μL of a new MEMα culture medium was dispensed into each well, and each peptide solution (50 μL) was added (total 500 μL/well) to perform culture for 5 days. The cells were recovered to count the cell number. A similar culture test was performed using a system containing neither peptide nor FBS as a comparative sample.
The culture medium in each well was recovered in a 1.5 mL tube to be rinsed with 200 μL of MEMα, and the rinsed liquid was also recovered in the same 1.5 mL tube. Thereafter, 100 μL of trypsin was added and incubated for 3 minutes. After rinsing with 300 μL of MEMα containing 10% FBS, the rinsed liquid was also recovered in the same 1.5 mL tube. After rinsing again with 200 μL of MEMα containing 10% FBS, the rinsed liquid was also recovered in the same 1.5 mL tube.
A centrifugation operation was performed on the cells recovered in the 1.5 mL tube. The centrifugation conditions were 1,000 rpm, 10 minutes, and 4° C.
The supernatant was removed, and 300 μL of Cold PBS (phosphate buffered saline) was added to perform a centrifugation operation under the same conditions. The present operation was repeated twice.
Suspension was carried out with 100 μL of Binding Buffer, and 2 μL of propidium iodide (PI) was added and stirred in the tube to cause a reaction for 15 minutes at room temperature and with light shielding. Thereafter, the viable cell count and the cell viability were measured with a flow cytometer.
The above preparation, culture, and measurement were performed with n=3. Table 15 and FIG. 15 show the viable cell count in each peptide solution, and Table 16 and FIG. 16 show the cell viability in each peptide solution.

[3] = replicate 1, 2.2 mM Asp-Gly-Pro
[4] = replicate 2, 2.2 mM Asp-Gly-Pro
[5] = replicate 3, 2.2 mM Asp-Gly-Pro

Substance: Ala-Glu-Lys [AEK]
- Absorbance (450 nm) ([1]; 0.129 mM peptide): 0.0350
- Absorbance (450 nm) ([1]; 0.259 mM peptide): 0.1143
- Absorbance (450 nm) ([1]; 0.516 mM peptide): 0.1927
- Absorbance (450 nm) ([1]; 1.03 mM peptide): 0.2337
- Absorbance (450 nm) ([1]; 2.06 mM peptide): 0.5013
- Absorbance (450 nm) ([1]; 4.13 mM peptide): 0.4857
- cell growth promotion, order of the peptides [1]: cell growth was promoted

Substance: Ala-Gly-Gly [AGG]
- Absorbance (450 nm) ([1]; 0.156 mM peptide): 0.0277
- Absorbance (450 nm) ([1]; 0.313 mM peptide): 0.0274
- Absorbance (450 nm) ([1]; 0.625 mM peptide): 0.0967
- Absorbance (450 nm) ([1]; 1.25 mM peptide): 0.2064
- Absorbance (450 nm) ([1]; 2.5 mM peptide): 0.3357
- Absorbance (450 nm) ([1]; 5 mM peptide): 0.2080
- cell growth promotion, order of the peptides [1]: cell growth was promoted

Substance: Ala-Ser-Asn
- Absorbance (450 nm) ([1]; 0.138 mM peptide): −0.0527
- Absorbance (450 nm) ([1]; 0.276 mM peptide): −0.0250
- Absorbance (450 nm) ([1]; 0.552 mM peptide): −0.0214
- Absorbance (450 nm) ([1]; 1.10 mM peptide): −0.0224
- Absorbance (450 nm) ([1]; 2.21 mM peptide): 0.1170
- Absorbance (450 nm) ([1]; 4.42 mM peptide): 0.3320
- cell growth promotion, order of the peptides [1]: cell growth was promoted

Substance: Glu-Gly-Lys [EGK]
- Absorbance (450 nm) ([1]; 0.128 mM peptide): 0.0383
- Absorbance (450 nm) ([1]; 0.257 mM peptide): 0.1123
- Absorbance (450 nm) ([1]; 0.512 mM peptide): 0.0893
- Absorbance (450 nm) ([1]; 1.02 mM peptide): 0.1503
- Absorbance (450 nm) ([1]; 2.05 mM peptide): 0.1876
- Absorbance (450 nm) ([1]; 4.10 mM peptide): 0.2373
- cell growth promotion, order of the peptides [1]: cell growth was promoted

Substance: Gly-Gly-Gly [GGG, reference compound]
- Absorbance (450 nm) ([1]; 0.156 mM peptide): 0.0067
- Absorbance (450 nm) ([1]; 0.313 mM peptide): 0.0037
- Absorbance (450 nm) ([1]; 0.625 mM peptide): 0.0027
- Absorbance (450 nm) ([1]; 1.25 mM peptide): −0.0013
- Absorbance (450 nm) ([1]; 2.5 mM peptide): 0.0013
- Absorbance (450 nm) ([1]; 5 mM peptide): 0.0083
- Cells cell count, Mean ([2]; mean n=3, 2.2 mM Asp-Gly-Pro): 0.0502 ×10^4
- Viability, Mean ([2]; mean n=3, 2.2 mM Asp-Gly-Pro): 1.7
- Cells cell count, 1 [2, 3]: 0.1360 ×10^4
- Viability, 1 [2, 3]: 4.45
- Cells cell count, 2 [2, 4]: 0.0080 ×10^4
- Viability, 2 [2, 4]: 0.31
- Cells cell count, 3 [2, 5]: 0.0065 ×10^4
- Viability, 3 [2, 5]: 0.21

Substance: Gly-Gly-Pro [GGP]
- Absorbance (450 nm) ([1]; 0.135 mM peptide): 0.0420
- Absorbance (450 nm) ([1]; 0.270 mM peptide): 0.0966
- Absorbance (450 nm) ([1]; 0.539 mM peptide): 0.2946
- Absorbance (450 nm) ([1]; 1.08 mM peptide): 0.4653
- Absorbance (450 nm) ([1]; 2.16 mM peptide): 0.5483
- Absorbance (450 nm) ([1]; 4.31 mM peptide): 0.3286
- cell growth promotion, order of the peptides [1]: cell growth was promoted
